Laboratory results from patent US7138361B2, “Herbicidal heterocycles” (E. I. du Pont de Nemours and Company, priority 2000, dated 2006).

How the values were obtained:
Type in all cases: in vivo
[1] = system: cocklebur (Xanthium strumarium); assay: Test B preemergence
Procedure, shortened: (§1)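 Greenhouse test: chemicals are formulated in a surfactant-containing non-phytotoxic solvent and applied either preemergence to planted seeds or postemergence to plants 2 to 18 cm tall. Response is rated visually versus controls after 13 to 15 days, 0 meaning no effect and 100 complete control.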

[2] = system: morning glory (Ipomoea hederacea); assay: Test B preemergence
Procedure, shortened: as §1

[3] = system: lambsquarters (Chenopodium album); assay: Test B preemergence
Procedure, shortened: as §1

[4] = system: barnyardgrass (Echinochloa crus-galli); assay: Test B preemergence
Procedure, shortened: as §1

[5] = system: Surinam grass (Brachiaria decumbens); assay: Test B preemergence
Procedure, shortened: as §1

[6] = system: giant foxtail (Setaria faberii); assay: Test B preemergence
Procedure, shortened: as §1

corn (Zea mays) [7] = assay: Test B preemergence
Procedure, shortened: as §1

rice (Oryza saliva) [8] = assay: Test B preemergence
Procedure, shortened: as §1

[9] = system: velvetleaf (Abutilon theophrasti); assay: Test B preemergence
Procedure, shortened: as §1

[10] = system: pigweed (Amaranthus retroflexus); assay: Test B preemergence
Procedure, shortened: as §1

[11] = system: crabgrass (Digitaria sanguinalis); assay: Test B preemergence
Procedure, shortened: as §1

[12] = system: cocklebur (Xanthium strumarium); assay: Test B postemergence
Procedure, shortened: as §1

wild oat (Avena fatua) = assay: Test B postemergence
Procedure, shortened: as §1

[13] = system: morning glory (Ipomoea hederacea); assay: Test B postemergence
Procedure, shortened: as §1

[14] = system: lambsquarters (Chenopodium album); assay: Test B postemergence
Procedure, shortened: as §1

[15] = system: barnyardgrass (Echinochloa crus-galli); assay: Test B postemergence
Procedure, shortened: as §1

[16] = system: Surinam grass (Brachiaria decumbens); assay: Test B postemergence
Procedure, shortened: as §1

[17] = system: giant foxtail (Setaria faberii); assay: Test B postemergence
Procedure, shortened: as §1

corn (Zea mays) [18] = assay: Test B postemergence
Procedure, shortened: as §1

[19] = system: wheat (Triticum aestivum); assay: Test B postemergence
Procedure, shortened: as §1

[20] = system: velvetleaf (Abutilon theophrasti); assay: Test B postemergence
Procedure, shortened: as §1

[21] = system: pigweed (Amaranthus retroflexus); assay: Test B postemergence
Procedure, shortened: as §1

[22] = system: blackgrass (Alopecurus myosuroides); assay: Test B postemergence
Procedure, shortened: as §1

[23] = system: crabgrass (Digitaria sanguinalis); assay: Test B postemergence
Procedure, shortened: as §1

Sunflower = assay: Test C preemergence; settings: Rate 250 g/ha, scale 0 to 100, 0 no effect, 100 complete control
rice (Oryza saliva) [24] = assay: Test C flooded paddy test; settings: for Rice plant response rating: Flooded Paddy, scale 0 to 100, 0 no effect, 100 complete control; for Plant response rating, Rice: flooded paddy test, scale 0 to 100 (0 no effect, 100 complete control)
Procedure, shortened: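 Greenhouse-maintained for 12 to 14 days after treatment, the paddy plants (2-leaf stage at application) were scored visually against controls. A score of 0 denotes no effect and a score of 100 denotes complete control.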

[25] = Preemergence, Rate 500 g/ha, scale 0 to 100, 0 no effect, 100 complete control
[26] = preemergence, Rate 125 g/ha, scale of 0 to 100 where 0 is no effect and 100 is complete control, 13 to 15 days
[27] = Rate 125 g/ha, scale 0 (no effect) to 100 (complete control), 13 to 15 days
[28] = Rate 500 g/ha, scale 0 to 100, 0 is no effect, 100 is complete control, 13 to 15 days
[29] = preemergence, Rate 62 g/ha, scale of 0 to 100 where 0 is no effect and 100 is complete control, 13 to 15 days
[30] = preemergence, Rate 250 g/ha, scale 0 to 100, 0 no effect, 100 complete control
[31] = Rate 62 g/ha, scale 0 to 100, 0 no effect, 100 complete control
[32] = Rate 250 g/ha, scale 0 (no effect) to 100 (complete control), 13 to 15 days

CCC(CC)c1ccn(C2CCN(c3ccc(C)c(OC)c3)C2=O)n1 (stereo not shown) [Compound 81]
90: Plant response rating, Cocklebur [1, 25] | Plant response rating, Surinam grass [5, 26] | Plant response rating, Rice (rice (Oryza saliva) [8]; [25]) | Plant response rating, Cocklebur [12, 27] | Plant response rating, Lambsquarters [14, 28] | Plant response rating, Velvetleaf [20, 28] | Plant response rating, Pigweed [21, 28]
0: Plant response rating, Cocklebur [1, 26] | Plant response rating, Corn (corn (Zea mays) [7]; [26]) | Plant response rating, Wild Oat (wild oat (Avena fatua); [27]) | Plant response rating, Wild Oat (wild oat (Avena fatua); [28]) | Plant response rating, Barnyardgrass [15, 27] | Plant response rating, Barnyardgrass [15, 28] | Plant response rating, Surinam grass [16, 27] | Plant response rating, Foxtail, Giant [17, 27] | Plant response rating, Foxtail, Giant [17, 28] | Plant response rating, Wheat [19, 27] | Plant response rating, Wheat [19, 28] | Plant response rating, Blackgrass [22, 27] | Plant response rating, Blackgrass [22, 28] | Plant response rating, Crabgrass [23, 27] | Plant response rating, Sunflower (Sunflower) | Plant response rating, Rice (rice (Oryza saliva) [24]; Rate 62 g/ha) | Plant response rating, Rice (rice (Oryza saliva) [24]; Rate 125 g/ha)
30: Plant response rating, Morningglory [2, 26] | Plant response rating, Corn (corn (Zea mays) [7]; [25]) | Plant response rating, Crabgrass [23, 28]
80: Plant response rating, Velvetleaf [9, 25] | Plant response rating, Morningglory [13, 27] | Plant response rating, Velvetleaf [20, 27] | Rice plant response rating (rice (Oryza saliva) [24]; Rate 250 g/ha) | Rice plant response rating (rice (Oryza saliva) [24]; Rate 500 g/ha)
70: Plant response rating, Velvetleaf [9, 26] | Plant response rating, Pigweed [21, 27]
100: Plant response rating, Morningglory [2, 25] | Plant response rating, Lambsquarters [3, 25] | Plant response rating, Lambsquarters [3, 26] | Plant response rating, Barnyardgrass [4, 25] | Plant response rating, Barnyardgrass [4, 26] | Plant response rating, Surinam grass [5, 25] | Plant response rating, Foxtail, Giant [6, 25] | Plant response rating, Foxtail, Giant [6, 26] | Plant response rating, Pigweed [10, 25] | Plant response rating, Pigweed [10, 26] | Plant response rating, Crabgrass [11, 25] | Plant response rating, Crabgrass [11, 26] | Plant response rating, Cocklebur [12, 28] | Plant response rating, Morningglory [13, 28]
20: Plant response rating, Lambsquarters [14, 27]
50: Plant response rating, Rice (rice (Oryza saliva) [8]; [26])
10: Plant response rating, Surinam grass [16, 28] | Plant response rating, Corn (corn (Zea mays) [18]; [27]) | Plant response rating, Corn (corn (Zea mays) [18]; [28])

Cc1ccc(N2CCC(n3ccc(C(C)(C)C)n3)C2=O)cc1OCCCl (stereo not shown) [Compound 109]
80: Plant response rating, Lambsquarters [14, 31] | Plant response rating, Velvetleaf [20, 32] | Plant response rating, Velvetleaf [20, 28]
60: Plant response rating, Velvetleaf [9, 30] | Plant response rating, Cocklebur [12, 31] | Plant response rating, Pigweed [21, 32]
30: Plant response rating, Barnyardgrass [4, 26]
90: Plant response rating, Surinam grass [5, 30] | Plant response rating, Cocklebur [12, 28] | Plant response rating, Morningglory [13, 31] | Plant response rating, Lambsquarters [14, 32] | Plant response rating, Lambsquarters [14, 28] | Plant response rating, Pigweed [21, 28] | Plant response rating, Sunflower (Sunflower)
50: Plant response rating, Barnyardgrass [4, 30] | Plant response rating, Surinam grass [5, 26] | Plant response rating, Foxtail, Giant [6, 25] | Plant response rating, Pigweed [21, 31]
100: Plant response rating, Lambsquarters [3, 25] | Plant response rating, Lambsquarters [3, 29] | Plant response rating, Lambsquarters [3, 26] | Plant response rating, Lambsquarters [3, 30] | Plant response rating, Barnyardgrass [4, 25] | Plant response rating, Surinam grass [5, 25] | Plant response rating, Foxtail, Giant [6, 30] | Plant response rating, Pigweed [10, 25] | Plant response rating, Pigweed [10, 29] | Plant response rating, Pigweed [10, 26] | Plant response rating, Pigweed [10, 30] | Plant response rating, Crabgrass [11, 25] | Plant response rating, Crabgrass [11, 29] | Plant response rating, Crabgrass [11, 26] | Plant response rating, Crabgrass [11, 30] | Plant response rating, Morningglory [13, 32] | Plant response rating, Morningglory [13, 28]
0: Plant response rating, Cocklebur [1, 25] | Plant response rating, Cocklebur [1, 29] | Plant response rating, Cocklebur [1, 26] | Plant response rating, Cocklebur [1, 30] | Plant response rating, Morningglory [2, 25] | Plant response rating, Morningglory [2, 29] | Plant response rating, Morningglory [2, 26] | Plant response rating, Morningglory [2, 30] | Plant response rating, Barnyardgrass [4, 29] | Plant response rating, Foxtail, Giant [6, 26] | Plant response rating, Corn (corn (Zea mays) [7]; [25]) | Plant response rating, Corn (corn (Zea mays) [7]; [29]) | Plant response rating, Corn (corn (Zea mays) [7]; [26]) | Plant response rating, Corn (corn (Zea mays) [7]; [30]) | Plant response rating, Rice (rice (Oryza saliva) [8]; [25]) | Plant response rating, Rice (rice (Oryza saliva) [8]; [29]) | Plant response rating, Rice (rice (Oryza saliva) [8]; [26]) | Plant response rating, Rice (rice (Oryza saliva) [8]; [30]) | Plant response rating, Velvetleaf [9, 29] | Plant response rating, Velvetleaf [9, 26] | Plant response rating, Wild Oat (wild oat (Avena fatua); [31]) | Plant response rating, Wild Oat (wild oat (Avena fatua); [32]) | Plant response rating, Wild Oat (wild oat (Avena fatua); [28]) | Plant response rating, Barnyardgrass [15, 31] | Plant response rating, Barnyardgrass [15, 27] | Plant response rating, Barnyardgrass [15, 32] | Plant response rating, Barnyardgrass [15, 28] | Plant response rating, Surinam grass [16, 31] | Plant response rating, Surinam grass [16, 27] | Plant response rating, Surinam grass [16, 28] | Plant response rating, Foxtail, Giant [17, 31] | Plant response rating, Foxtail, Giant [17, 27] | Plant response rating, Foxtail, Giant [17, 28] | Plant response rating, Corn (corn (Zea mays) [18]; [31]) | Plant response rating, Corn (corn (Zea mays) [18]; [27]) | Plant response rating, Corn (corn (Zea mays) [18]; [32]) | Plant response rating, Corn (corn (Zea mays) [18]; [28]) | Plant response rating, Wheat [19, 31] | Plant response rating, Wheat [19, 32] | Plant response rating, Wheat [19, 28] | Plant response rating, Velvetleaf [20, 31] | Plant response rating, Blackgrass [22, 31] | Plant response rating, Blackgrass [22, 27] | Plant response rating, Blackgrass [22, 32] | Plant response rating, Blackgrass [22, 28] | Plant response rating, Crabgrass [23, 31] | Plant response rating, Crabgrass [23, 27] | Plant response rating, Crabgrass [23, 32] | Plant response rating, Crabgrass [23, 28] | Rice plant response rating (rice (Oryza saliva) [24]; Rate 250 g/ha) | Plant response rating, Rice (rice (Oryza saliva) [24]; Rate 62 g/ha) | Plant response rating, Rice (rice (Oryza saliva) [24]; Rate 125 g/ha)
40: Plant response rating, Cocklebur [12, 27]
20: Plant response rating, Surinam grass [5, 29] | Plant response rating, Foxtail, Giant [6, 29] | Plant response rating, Surinam grass [16, 32] | Plant response rating, Foxtail, Giant [17, 32] | Rice plant response rating (rice (Oryza saliva) [24]; Rate 500 g/ha)
70: Plant response rating, Velvetleaf [9, 25] | Plant response rating, Cocklebur [12, 32]
